Source: patent US9045555B2, “Vaccine against amyloid folding intermediate” (priority 2008, dated 2015)

Tests used:
[1] = test system: oligomeric Aβ 1-42; assay: ELISA of sera of immunized mice, coating oligomeric Aβ 1-42 (cross-reactivity); type: in vivo, Balb/c mice; conditions: in vitro ELISA
[2] = test system: fibrillar Aβ 1-42; assay: ELISA of sera of immunized mice, coating fibrillar Aβ 1-42 (cross-reactivity); type: in vivo, Balb/c mice; conditions: in vitro ELISA
[3] = test system: Aβ deposits in post-mortem AD human brain tissue (hippocampus); assay: Immunohistochemical staining of human AD brain sections with sera of immunized mice; conditions: mouse serum 1:300, hippocampus cryosections, Braak 5 or 6; positive control 6E10
Text: FIG. 6: Immunohistochemical staining of human brain section donor 99-30 (Braak 6) with a mouse serum (1:300) immunized with cyclo[Aβ(22-28)-YNGK]/tetanus toxoid conjugate (a) and the control monoclonal 6E10 (1:15.000) in (b). […] (Microscope: Leica DMRE fitted with a DC300 camera)
Human brain sections of the hippocampus of several donors with Alzheimer disease (Braak 5 or 6) were used (Netherlands Brain Bank). Cryosections (10 μm) were cut from unfixed directly frozen tissue, thaw-mounted, dried for 1 hour and stored in a sealed box at −20 C. For immunostaining, sections were fixed in 4% PFA-PBS solution for 10 min, washed in 0.05 M phosphate buffer (PB) for 10 min with 2 exchanges and blocked with 10% normal donkey serum (NDS)+0.4% TritonX100 in 0.05M PB for 1 hour at RT. The blocking solution was discarded and diluted mouse sera (1:300; first antibody) in 3% NDS+0.4% TritonX100 in 0.05 M PB was added and incubated 0/N at RT in a box with wet tissues. Sections were washed with 0.05M PB; at least 30 min with one or more exchanges. Then sections were incubated with Donkey-anti-Mouse˜Cy3 1:1400 in 0.05 M PB for 2 hours. Sections were washed with 0.05M PB; at least 30 min with one or more exchanges. Sections were sealed in Vectashield with Dapi (Vector). Mouse Monoclonal 6E10 to beta amyloid 1-17 (Abcam, Cambridge, UK) was used as positive control (1:15,000).

[4] = test system: conformational epitope of Aβ 1-42; assay: Antibody response in mice recognizing a conformational epitope of Aβ 1-42; type: in vivo; conditions: epitope as expressed in monomer, soluble oligomer, fibrils or neurodegenerative plaques
[5] = ELISA of sera of immunized mice, coating homologous peptide-BSA conjugates (anti-peptide titre); type: in vivo, Balb/c mice

Row | Substance | cross-reaction of elicited antibodies with Aβ (1-42)-oligomers [1] | cross-reaction of elicited antibodies with Aβ (1-42)-fibrils [2] | recognition of Aβ deposits / plaques in AD human brain tissue by elicited antibodies [3] | induction of an antibody response in mice specifically recognizing a conformational epitope of Aβ 1-42 [4] | antipeptide antibody titers / antibody response to the immunizing peptide [5]
1 | cyclo[EDVGSNKYNGK*] (cyclo(EDVGSNKYNGK(tetanus toxoid))) [group 9, tetanus toxoid conjugate of the cyclic peptide [Aβ(22-28)-YNGK*]] | cross-react | cross-react | recognize | able to induce an antibody response | 
2 | Ac-K*EDVGSNKYNG-NH2 (Ac-K(tetanus toxoid)EDVGSNKYNG-NH2) [group 3, tetanus toxoid conjugate of the linear N-acetylated peptide amide] | did not recognize | did not recognize |  |  | good
